Data as given in US20160030407A1, “Method of Treating Inflammatory Lung Disease” (priority 2010, published 2016).
Where “and” joins values, the source holds several entries; their conditions need not be identical. Equal entries are not always repeated. Entries after “also recorded” stand apart in the source; their conditions may differ.

Assays:
[1] = Single i.v. dose toxicity: hematology; assay type: in vivo, Sprague-Dawley rats; details: for mean corpuscular volume (MCV) and mean corpuscular hemoglobin (MCH) vs control: […] anatabine, 0.75 mg/kg nicotine i.v.
Source text: (§1) On day 15, urine was collected on all surviving animals for urinalysis. The animals were euthanized and bled via cardiac puncture. Blood was collected for hematology, clinical chemistry, and coagulation analysis. Tissues were collected, weighed, and stored in 10% neutral-buffered formalin for possible future analysis.

[2] = Physical signs after single i.v. dose (Example 3); assay type: in vivo, Sprague-Dawley rats; details: rat, nicotine 0.4 mg/kg, anatabine 0.10, 0.75, 1.0 mg/kg
Experimental: Four aliquots of each dose level formulation were collected and stored at −80° C. The test compound, corresponding dose level, number of animals, and sample collection times for Phase I of the study are shown in Table 3. The test compound, corresponding dose level, number of animals, and sample collection times for Phase II of the study are shown in Table 4. The physical signs of each animal were monitored following administration of the test compound.

[3] = target: T1, nAChR α3/β4 (Homo sapiens, UniProt P30926+P32297); experiment: nAChR α3/β4 channel agonist assay (FLIPR); assay type: cell-based; details: 0.3-1000 μM
Experimental: (§2) Briefly, cells were incubated with […] dye for 30 min at 37° C.

[4] = Single i.v. dose toxicity: urinalysis; assay type: in vivo, Sprague-Dawley rats; details: for Urinalysis KETONES / Urinalysis BILIRUBIN / Urinalysis BLOOD / Urinalysis PROTEIN / Urinalysis pH / Urinalysis CLARITY / Urinalysis COLOR / Urinalysis GLUCOSE / Urinalysis UROBILINOGEN / Urinalysis VOLUME: individual animals M and F; for urinalysis parameters vs controls: rat, day 15 after single i.v. dose
Source text: as §1

[5] = target: T1, nAChR α3/β4; experiment: cell-based; details: read-out: Normalized % Inhibition
Experimental: as §2

[6] = 0.1 mg/kg, gender F, group mean
[7] = 0.1 mg/kg, gender M, group mean
[8] = 0.75 mg/kg, gender F, group mean
[9] = 0.75 mg/kg, gender M, group mean
[10] = anatabine 0.1 mg/kg, female rats, individual animals
[11] = anatabine 0.1 mg/kg, male rats, individual animals
[12] = anatabine 0.75 mg/kg, female rats, individual animals
[13] = anatabine 0.75 mg/kg, male rats, individual animals
[14] = Anatabine dose 0.1 mg/kg, 0.1 mg/kg, female rats
[15] = Anatabine dose 0.1 mg/kg, 0.1 mg/kg, male rats
[16] = Anatabine dose 0.1 mg/kg, female rats
[17] = Anatabine dose 0.1 mg/kg, male rats
[18] = Anatabine dose 0.75 mg/kg, 0.75 mg/kg, female rats
[19] = Anatabine dose 0.75 mg/kg, 0.75 mg/kg, male rats
[20] = Anatabine dose 0.75 mg/kg, female rats
[21] = Anatabine dose 0.75 mg/kg, male rats
[22] = 0.75 mg/kg nicotine, female rats, individual animals
[23] = 0.75 mg/kg nicotine, female rats, individual animals, tartrate
[24] = 0.75 mg/kg nicotine, male rats, individual animals
[25] = 0.75 mg/kg nicotine, male rats, individual animals, tartrate

T1 sequence (P32297 32-505): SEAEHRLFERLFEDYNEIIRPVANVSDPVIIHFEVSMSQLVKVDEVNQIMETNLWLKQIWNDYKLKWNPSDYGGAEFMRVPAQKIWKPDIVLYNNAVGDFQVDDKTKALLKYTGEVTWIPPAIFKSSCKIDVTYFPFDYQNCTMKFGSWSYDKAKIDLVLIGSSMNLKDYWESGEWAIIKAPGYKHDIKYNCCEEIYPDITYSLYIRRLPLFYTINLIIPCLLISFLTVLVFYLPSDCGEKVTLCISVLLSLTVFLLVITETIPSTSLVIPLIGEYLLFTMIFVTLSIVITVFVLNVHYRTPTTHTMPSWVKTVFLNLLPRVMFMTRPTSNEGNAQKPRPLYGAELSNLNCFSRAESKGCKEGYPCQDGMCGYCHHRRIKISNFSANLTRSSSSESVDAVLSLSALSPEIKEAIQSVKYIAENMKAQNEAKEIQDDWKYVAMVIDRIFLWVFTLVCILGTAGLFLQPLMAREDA
T1 sequence (P30926 22-498): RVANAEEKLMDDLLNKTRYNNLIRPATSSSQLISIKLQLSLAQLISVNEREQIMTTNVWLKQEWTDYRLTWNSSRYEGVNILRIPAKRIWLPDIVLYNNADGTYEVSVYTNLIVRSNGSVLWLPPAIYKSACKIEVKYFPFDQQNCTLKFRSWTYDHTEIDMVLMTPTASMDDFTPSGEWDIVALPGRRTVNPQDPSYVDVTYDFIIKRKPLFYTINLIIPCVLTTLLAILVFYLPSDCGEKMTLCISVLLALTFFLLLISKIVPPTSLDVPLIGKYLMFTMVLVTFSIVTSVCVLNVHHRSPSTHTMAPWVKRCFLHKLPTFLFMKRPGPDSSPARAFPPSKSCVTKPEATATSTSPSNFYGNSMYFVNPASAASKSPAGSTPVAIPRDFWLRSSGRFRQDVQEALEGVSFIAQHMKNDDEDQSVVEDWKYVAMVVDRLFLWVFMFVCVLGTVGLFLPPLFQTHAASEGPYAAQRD

## C1=CCC(c2cccnc2)NC1 (racemic) [Anatabine, 1,2,3,6-tetrahydro-[2,3′]bipyridinyl]
[1]; [6]
  BASOPHIL: 0.0%
  EOSINOPHIL: 0.0%
  MCV: 60.0 fL
  MONOCYTE: 1.8%
  NEUTROPHIL SEG: 8.0%
  PLATELET COUNT: 997300 µL⁻¹
  RBC: 7.8e+06 µL⁻¹
  RETICULOCYTE COUNT: 4.5%
  WBC: 9300 µL⁻¹
[1]; [7]
  BASOPHIL: 0.0%
  EOSINOPHIL: 0.2%
  MONOCYTE: 2.0%
  NEUTROPHIL SEG: 8.6%
  PLATELET COUNT: 1.2486e+06 µL⁻¹
  RBC: 7.4e+06 µL⁻¹
  RETICULOCYTE COUNT: 5.5%
  WBC: 15600 µL⁻¹
[1]; [8]
  BASOPHIL: 0.0%
  EOSINOPHIL: 0.0%
  MONOCYTE: 0.8%
  NEUTROPHIL SEG: 8.6%
  PLATELET COUNT: 1.2696e+06 µL⁻¹
  RBC: 7.5e+06 µL⁻¹
  RETICULOCYTE COUNT: 3.3%
  WBC: 10300 µL⁻¹
[1]; [9]
  BASOPHIL: 0.0%
  EOSINOPHIL: 0.0%
  MCHC: 34.0%
  MONOCYTE: 1.4%
  NEUTROPHIL SEG: 9.8%
  PLATELET COUNT: 1.3258e+06 µL⁻¹
  RBC: 7.5e+06 µL⁻¹
  RETICULOCYTE COUNT: 4.4%
  WBC: 12100 µL⁻¹
[1]; [10]
  ANISOCYTOSIS: SLIGHT
  BASOPHIL: 0%
  EOSINOPHIL: 0%
  HCT: 44%
  HGB: 17 gm/dL
  LYMPHOCYTE: 89% and 90% and 91% and 93% and 88%
  MCHC: 34%
  MONOCYTE: 3% and 2% (2×) and 1% (2×)
  NEUTROPHILSEG: 8% (2×) and 7% and 6% and 11%
  PLATELETEST: ADEQUATE; also recorded: DECREASED
  POLYCHROMASIA: SLIGHT
  RETICULOCYTE COUNT: 4.8% and 5.4% and 6.1% and 3.7% and 2.4%
[1]; [11]
  ANISOCYTOSIS: SLIGHT
  BASOPHIL: 0%
  EOSINOPHIL: 0% (4×) and 1%
  HCT: 45%
  LYMPHOCYTE: 87% (2×) and 94% and 90% and 88%
  MCHC: 34% (2×) and 32%
  MONOCYTE: 1% (2×) and 3% (2×) and 2%
  NEUTROPHILSEG: 12% and 3% and 7% and 10% and 11%
  PLATELETEST: ADEQUATE; also recorded: INCREASED
  POLYCHROMASIA: SLIGHT
  RETICULOCYTE COUNT: 6.1% and 5.4% and 4.7% and 5.6% and 5.9%
[1]; [12]
  ANISOCYTOSIS: SLIGHT
  BASOPHIL: 0%
  EOSINOPHIL: 0%
  HGB: 15 gm/dL
  LYMPHOCYTE: 93% (2×) and 87% and 91% and 89%
  MONOCYTE: 1% (2×) and 0% (2×) and 2%
  NEUTROPHILSEG: 6% and 12% and 9% (2×) and 7%
  PLATELETEST: ADEQUATE; also recorded: INCREASED
  POLYCHROMASIA: SLIGHT
  RETICULOCYTE COUNT: 3.4% and 1.8% and 3.2% and 3.8% and 4.1%
[1]; [13]
  ANISOCYTOSIS: SLIGHT
  BASOPHIL: 0%
  EOSINOPHIL: 0%
  LYMPHOCYTE: 86% and 89% (2×) and 92% and 88%
  MCH: 21 UUG and 22 UUG
  MONOCYTE: 1% (3×) and 2% (2×)
  NEUTROPHILSEG: 13% and 10% (3×) and 6%
  PLATELETEST: ADEQUATE; also recorded: DECREASED
  POLYCHROMASIA: SLIGHT
  RETICULOCYTE COUNT: 3.6% and 4.2% and 4.1% and 4.7% and 5.3%
[1]; female rats, 0.1 mg/kg anatabine i.v.
  mean corpuscular hemoglobin concentration (MCHC) vs control: small but statistically significant decrease
[1]; female rats
  mean corpuscular volume (MCV) and mean corpuscular hemoglobin (MCH) vs control: small, but statistically significant decreases
[2]
  physical signs post dose: no obvious adverse signs were observed
[3]
  agonist activity: showed agonist activity
[4]; Anatabine dose 0.1 mg/kg, 0.1 mg/kg
  Urinalysis KETONES: NEGATIVE
[4]; [14]
  Urinalysis BILIRUBIN: NEGATIVE
  Urinalysis BLOOD: NEG- (3×) and TRACE
  Urinalysis PROTEIN: NEG-
  Urinalysis pH: 7.5 (2×) and 7 and 8
[4]; [15]
  Urinalysis BILIRUBIN: NEGATIVE
  Urinalysis BLOOD: TRACE (2×) and NEG-
  Urinalysis PROTEIN: TRACE (3×) and NEG-
  Urinalysis pH: 8.5 and 7.5 (2×) and 7
[4]; [16]
  Urinalysis CLARITY: HAZY
  Urinalysis COLOR: YELLOW
  Urinalysis GLUCOSE: NEGATIVE
  Urinalysis UROBILINOGEN: NORMAL
  Urinalysis VOLUME: <0.5 mL
[4]; [17]
  Urinalysis CLARITY: HAZY
  Urinalysis COLOR: YELLOW
  Urinalysis GLUCOSE: NEGATIVE
  Urinalysis UROBILINOGEN: NORMAL
  Urinalysis VOLUME: <0.5 mL
[4]; Anatabine dose 0.75 mg/kg
  Urinalysis CLARITY: HAZY
  Urinalysis COLOR: YELLOW
  Urinalysis VOLUME: <0.5 mL
[4]; Anatabine dose 0.75 mg/kg, 0.75 mg/kg
  Urinalysis PROTEIN: TRACE
[4]; [18]
  Urinalysis BILIRUBIN: NEGATIVE
  Urinalysis BLOOD: TRACE and NEG-
  Urinalysis KETONES: NEGATIVE
  Urinalysis pH: 7.5 and 6 and 8 (2×)
[4]; [19]
  Urinalysis BILIRUBIN: NEGATIVE
  Urinalysis BLOOD: TRACE and NEG- (3×)
  Urinalysis KETONES: NEGATIVE
  Urinalysis pH: 7
[4]; [20]
  Urinalysis GLUCOSE: NEGATIVE
  Urinalysis UROBILINOGEN: NORMAL
[4]; [21]
  Urinalysis GLUCOSE: NEGATIVE
  Urinalysis UROBILINOGEN: NORMAL
[4]
  urinalysis parameters vs controls: no notable differences in any of the urinalysis parameters

## CN1CCCC1c1cccnc1.O=C(O)C(O)C(O)C(=O)O (single isomer, unassigned; (-)) [Nicotine, (−) Nicotine hydrogen tartrate, reference compound]
[1]; [22]
  ANISOCYTOSIS: SLIGHT
  BASOPHIL: 0%
  EOSINOPHIL: 0%
  POLYCHROMASIA: SLIGHT
[1]; [23]
  LYMPHOCYTE: 83% and 87% and 89%
  MCHC: 34%
  MONOCYTE: 2% and 1% and 0%
  NEUTROPHILSEG: 15% and 12% and 11%
  RE[…]: 5.8% and 4.9% and 4.5%
[1]; [24]
  ANISOCYTOSIS: SLIGHT
  BASOPHIL: 0%
  EOSINOPHIL: 0%
  POLYCHROMASIA: SLIGHT
[1]; [25]
  HCT: 50%
  LYMPHOCYTE: 86% and 87% and 80% and 90%
  MONOCYTE: 2% (3×) and 4%
  NEUTROPHILSEG: 12% and 11% and 16% and 8%
  RE[…]: 4.3% and 4.8% and 5.6% and 6.1%
[1]; [8]
  BASOPHIL: 0.0%
  EOSINOPHIL: 0.0%
  HGB: 16.0 g/dL
  MONOCYTE: 1.0%
  PLATELET COUNT: 1.363e+06 µL⁻¹
  RBC: 8e+06 µL⁻¹
  RE[…]: 5.1%
  WBC: 10200 µL⁻¹
[1]; [9]
  BASOPHIL: 0.0%
  EOSINOPHIL: 0.0%
  MCHC: 34.0%
  MONOCYTE: 2.5%
  PLATELET COUNT: 1.3558e+06 µL⁻¹
  RBC: 7.6e+06 µL⁻¹
  RE[…]: 5.2%
  WBC: 11400 µL⁻¹
[1]; female rats
  mean corpuscular volume (MCV) and mean corpuscular hemoglobin (MCH) vs control: small, but statistically significant decreases
[2]; tartrate
  physical signs post dose: experienced tremors immediately post dose; also recorded: experienced labored breathing
[5]
  inhibition at 0.3 µM: 19.1%
  inhibition at 1 µM: 19%
  inhibition at 10 µM: 95.8%
  inhibition at 30 µM: 139%
  inhibition at 100 µM: 145%
  inhibition at 300 µM: 144%
  inhibition at 1000 µM: 142%
[4]
  urinalysis parameters vs controls: no notable differences in any of the urinalysis parameters
